Assay results taken from patent EP2411506B1, “TUMOR SUPPRESSION USING HUMAN PLACENTA-DERIVED INTERMEDIATE NATURAL KILLER CELLS AND IMMUNOMODULATORY COMPOUNDS” (Celularity, Inc., priority 2009, dated 2010).

Experiments:
[1] = system: day 21 cultivated placental NK cells; test: ELISA of perforin and granzyme B secretion from treated NK cells; format: cell-based, human; details: treated day 21 cultivated placental NK cells compared to controls
Protocol: In a separate experiment, secretion of perforin and granzyme B from pomalidomide- or lenalidomide-treated day 21 cultivated placental NK cells was evaluated by ELISA.

cultured PINK cells = test: qRT-PCR gene expression analysis of lenalidomide- and pomalidomide-treated cultured PINK cells; format: cell-based, human; details: for expression of GM-CSF, increase: treated PINK cells vs untreated
Source text: RNA isolation and purification.
Quantitative real-time (qRT-PCR) analysis.

placental NK cells = test: Luminex (Five-Plex Antibody Kit) of GM-CSF and TNF-α secretion from treated NK cells; details: treated cultured NK cells compared to controls
Protocol: Secretion of GM-CSF and TNF-α was evaluated by Luminex utilizing a Five-Plex Antibody Kit.

NK cells = test: Flow cytometry of GZMB-positive NK cells after pomalidomide treatment; format: cell-based, human; details: increase vs untreated
[2] = treated vs untreated cultured PINK cells (Veh = 1)
[3] = treated vs untreated cultured PINK cells (Veh = 1.01)

SMILES	increase in granzyme B secretion [1] [%]	increase in perforin secretion [1] [%]	expression of GM-CSF, increase (cultured PINK cells; qRT-PCR)	Fold change of gene expression: BAX (cultured PINK cells; [2])	Fold change of gene expression: CCL5 (cultured PINK cells; [2])	Fold change of gene expression: CCR5 (cultured PINK cells; [2])	Fold change of gene expression: CD8A (cultured PINK cells; [2])	Fold change of gene expression: CD68 (cultured PINK cells; [2])	Fold change of gene expression: CSF2 (cultured PINK cells; [2])	Fold change of gene expression: FAS (cultured PINK cells; [2])	Fold change of gene expression: GUSB (cultured PINK cells; [2])	Fold change of gene expression: IL2RA (cultured PINK cells; [2])	increase in GM-CSF secretion (placental NK cells) [%]	increase in TNF-α secretion (placental NK cells) [%]	further results
Nc1cccc2c1C(=O)N(C1CCC(=O)NC1=O)C2=O (racemic) [pomalidomide, 4-amino-2-[(3RS)-2,6-dioxopiperidin-3-yl)-1H-isoindole-1,3(2H)-dione]	69	121	396% ± 0.3%	2.23	1.78	0.68	2.39	8.74	3.96	1.34	1.76	1.58	357	147	increased granzyme B (GZMB) gene expression (cultured PINK cells; increase vs untreated, qRT-PCR): 60% ± 1.7%; Fold change of gene expression: ACTB (cultured PINK cells; [2]): 0.77; Fold change of gene expression: CCL2 (cultured PINK cells; [2]): 5.46; Fold change of gene expression: CCL3 (cultured PINK cells; [2]): 2.2; Fold change of gene expression: CD80 (cultured PINK cells; [2]): 1.59; Fold change of gene expression: CSF1 (cultured PINK cells; [2]): 1.41; Fold change of gene expression: ECE1 (cultured PINK cells; [2]): 1.56; Fold change of gene expression: GZMB (cultured PINK cells; [2]): 1.59; Fold change of gene expression: IL8 (cultured PINK cells; [2]): 1.62; Fold change of gene expression: LTA (cultured PINK cells; [2]): 2.88; Fold change of gene expression: PRF1 (cultured PINK cells; [2]): 1.17; Fold change of gene expression: PTGS2 (cultured PINK cells; [2]): 1.68; Fold change of gene expression: SKI (cultured PINK cells; [2]): 1.96; Fold change of gene expression: GNLY (cultured PINK cells; [3]): 1.96; Fold change of gene expression: IL1A (cultured PINK cells; [3]): 2.61; Fold change of gene expression: TBX21 (cultured PINK cells; [3]): 2.05; Fold change of gene expression: IL10 (cultured PINK cells; treated vs untreated cultured PINK cells (Veh = 1.02)): 1.52; increased percentage of GZMB-positive NK cells (NK cells): 25%
Nc1cccc2c1CN(C1CCC(=O)NC1=O)C2=O (centres unmarked) [lenalidomide, 3-(4'aminoisoindoline-1'-one)-1-piperidine-2,6-dione]	113	86	232% ± 1.6%	1.39	1.24	0.9	1.3	4.04	2.32	1.11	1.13	1.26	166	76	Fold change of gene expression: TNFRSF18 (cultured PINK cells; [2]): 0.7
